Data as given in patent publication US9181305B2, “Exendin-4 peptide analogues” (SANOFI, priority 2012, dated 2015).

Assays:
physchem = type: physicochemical
female NMRI-mice [1] = test: Gastric emptying and intestinal passage in mice; type: in vivo; details: 0.02 mg/kg s.c., 30 min prior to coloured bolus; p<0.0001
Protocol: Female NMRI-mice of a body weight between 20 and 30 g were used. Mice were adapted to housing conditions for at least one week. Mice were overnight fasted, while water remained available all the time. On the study day, mice were weighed, single-caged and allowed access to 500 mg of feed for 30 min, while water was removed. At the end of the 30 min feeding period, remaining feed was removed and weighed. 60 min later, a coloured, non-caloric bolus was instilled via gavage into the stomach. The test product or its vehicle in the control group was administered subcutaneously, to reach Cmax when coloured bolus was administered. After another 30 min, the animals were sacrificed and the stomach and the small intestine prepared. The filled stomach was weighed, emptied, carefully cleaned and dried and reweighed. The calculated stomach content indicated the degree of gastric emptying. The small intestine was straightened without force and measured in length. Then the distance from the gastric beginning of the gut to the tip of the farthest travelled intestinal content bolus was measured. The intestinal passage was given as relation in percent of the latter distance and the total length of the small intestine. Statistical analyses were performed with Everstat 6.0 by Student's T-Test. Differences were considered statistically significant at the p<0.05 level. […]

[2] = biological target: T1, human GLP-1 receptor (hGLP-1 R) (Homo sapiens, UniProt P43220); test: cAMP response (HTRF) of HEK-293 cells stably expressing human GLP-1 receptor; type: cell-based; details: HEK-293 cells expressing human GLP-1 receptor, cAMP formation
T1 construct: expressed in transfected cells; host or cells: HEK-293
T1 sequence (P43220 24-463): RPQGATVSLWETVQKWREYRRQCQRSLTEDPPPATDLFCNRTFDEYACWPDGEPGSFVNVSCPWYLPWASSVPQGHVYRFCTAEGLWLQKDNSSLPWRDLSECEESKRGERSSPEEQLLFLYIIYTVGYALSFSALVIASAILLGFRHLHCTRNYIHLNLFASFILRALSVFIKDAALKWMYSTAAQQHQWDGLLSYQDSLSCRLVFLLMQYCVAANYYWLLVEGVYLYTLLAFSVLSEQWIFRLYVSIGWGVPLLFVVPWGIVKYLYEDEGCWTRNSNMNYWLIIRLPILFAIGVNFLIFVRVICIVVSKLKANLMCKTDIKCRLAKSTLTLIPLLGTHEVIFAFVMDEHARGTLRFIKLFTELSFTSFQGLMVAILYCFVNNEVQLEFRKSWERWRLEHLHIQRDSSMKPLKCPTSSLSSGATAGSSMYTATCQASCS
Summary of the method: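 Detached HEK-293 cells stably expressing the receptor were suspended in HBSS with 20 mM HEPES, 0.1% BSA and 2 mM IBMX. Test compound was added for 30 min at room temperature, and cellular cAMP was quantified by HTRF.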

female NMRI-mice [3] = test: Automated assessment of feed intake in mice (22 hours); type: in vivo
Protocol: Female NMRI-mice of a body weight between 20 and 30 g were used. Mice were adapted to housing conditions for at least one week and for at least one day single-caged in the assessment equipment, when basal data were recorded simultaneously. On the study day, test product was administered subcutaneously close to the lights-off phase (12 h lights off) and assessment of feed consumption was directly started afterwards. Assessment included continued monitoring (every 30 min) over 22 hours. Repetition of this procedure over several days was possible. Restriction of assessment to 22 hours was for practical reason to allow for reweighing of animals, refilling of feed and water and drug administration between procedures. Results could be assessed as cumulated data over 22 hours or differentiated to 30 min intervals. Statistical analyses were performed with Everstat 6.0 by two-way ANOVA on repeated measures and Dunnetts post-hoc analyses. Differences were considered statistically significant at the p<0.05 level. Fed female NMRI-mice, weighing on average 27 g, were administered 0.01 or 0.1 mg/kg of SEQ ID NO: (7) or phosphate buffered saline (vehicle control) subcutaneously, directly prior to start of feeding monitoring. Lights-off phase (dark phase) started 4 hours later.

[4] = test system: female diet-induced obese C57BL/6NCrl mice; test: Single subcutaneous treatment, blood glucose in diet-induced obese mice; type: in vivo; details: single s.c. 100 μg/kg, fed DIO mice (9 months on high-fat diet)
Protocol: Female C57BL/6NCrl mice were housed in groups (n=8) and had ad-libitum access to high-fat diet and water. Initial blood samples were taken just before administration (s.c.) of vehicle (phosphate buffer solution) or the exendin-4 analogue (e.g. SEQ ID NO: (7)) (100 μg/kg in phosphate buffer) in fed DIO mice. The volume of administration was 5 mL/kg. The animals had access to high-fat diet and water during the experiment, food consumption was determined at all time points for blood sampling. Blood glucose levels were measured at t=0.5 h, t=1 h, t=2 h, t=4 h, t=6 h, t=8 h, and t=24 h. Blood sampling was performed by tail incision without anaesthesia. Statistical analyses were performed with Everstat 6.0 by repeated measures two-way ANOVA and Dunnetts post-hoc analyses. Differences were considered statistically significant at the p<0.05 level.

SMILES: CCCCCCCCCCCCCCCC(=O)N[C@@H](CCC(=O)NCCCC[C@H](NC(=O)[C@H](CO)NC(=O)[C@@H]1CCCN1C(=O)[C@@H]1CCCN1C(=O)[C@@H]1CCCN1C(=O)[C@H](C)NC(=O)CNC(=O)[C@H](CO)NC(=O)[C@H](CO)NC(=O)[C@@H]1CCCN1C(=O)CNC(=O)CNC(=O)[C@H](CC(N)=O)NC(=O)[C@H](CCCCN)NC(=O)[C@H](CC(C)C)NC(=O)[C@H](Cc1c[nH]c2ccccc12)NC(=O)[C@H](CCC(=O)O)NC(=O)[C@@H](NC(=O)[C@H](Cc1ccccc1)NC(=O)[C@H](CC(=O)O)NC(=O)[C@H](CCC(N)=O)NC(=O)[C@H](C)NC(=O)[C@H](CCCNC(=N)N)NC(=O)[C@H](CCCNC(=N)N)NC(=O)[C@H](CO)NC(=O)[C@H](CC(=O)O)NC(=O)[C@H](CCSC)NC(=O)[C@H](CCC(N)=O)NC(=O)[C@H](CCCCN)NC(=O)[C@H](CO)NC(=O)[C@H](CC(C)C)NC(=O)[C@H](CC(=O)O)NC(=O)[C@H](CO)NC(=O)[C@@H](NC(=O)[C@H](Cc1ccccc1)NC(=O)[C@@H](NC(=O)CNC(=O)[C@H](CCC(N)=O)NC(=O)[C@@H](CO)NC(=O)[C@@H](N)Cc1c[nH]cn1)[C@@H](C)O)[C@@H](C)O)[C@@H](C)CC)C(N)=O)C(=O)O [(7)]
- solubility at 2 h (physchem; pH 4.5): > 1000 µg/mL
- solubility at 2 h (physchem; pH 7.4): > 1000 µg/mL
- reduction of intestinal passage (female NMRI-mice [1]): 54%
- EC50 [2]: 5.2 pM
- reduction of feed intake at the end of the study (22 hours) (female NMRI-mice [3]; 0.01 mg/kg s.c., p=0.0027): 17%
- reduction of feed intake at the end of the study (22 hours) (female NMRI-mice [3]; 0.1 mg/kg s.c., p<0.0001): 37%
- blood glucose over 24 h compared to vehicle-treated control animals [4]: significantly decreased
